Test results from the NIST ThermoML archive (doi:10.1021/je060271a).
± gives the expanded uncertainty stated by the source.

Settings: 303.15 K, Liquid, Vibrating tube method

CCCCCCCC(=O)OCC(COC(=O)CCCCCCC)(COC(=O)CCCCCCC)COC(=O)CCCCCCC [pentaerythritol tetraoctanoate]
Settings | mass density [kg/m3]
333.5 kPa | 955.7 ± 1.2
351.9 kPa | 955.6 ± 1.2
363.2 kPa | 955.6 ± 1.2
377.9 kPa | 955.7 ± 1.2
393.4 kPa | 955.6 ± 1.2
410.1 kPa | 955.7 ± 1.2
427 kPa | 955.6 ± 1.2
438.6 kPa | 955.6 ± 1.2
450.2 kPa | 955.6 ± 1.2
462.7 kPa | 955.6 ± 1.2
474.7 kPa | 955.6 ± 1.2
487.9 kPa | 955.7 ± 1.2
499.6 kPa | 955.6 ± 1.2
514.7 kPa | 955.8 ± 1.2
529.5 kPa | 955.5 ± 1.2
545.8 kPa | 955.7 ± 1.2
562.8 kPa | 955.6 ± 1.2
580.7 kPa | 955.7 ± 1.2
600.2 kPa | 955.7 ± 1.2
620 kPa | 955.7 ± 1.2
635.4 kPa | 955.8 ± 1.2
653.7 kPa | 955.7 ± 1.2
673.1 kPa | 955.8 ± 1.2
690.2 kPa | 955.8 ± 1.2
711.7 kPa | 955.8 ± 1.2
734 kPa | 955.8 ± 1.2
753.9 kPa | 955.8 ± 1.2
778.9 kPa | 955.8 ± 1.2
805.3 kPa | 955.7 ± 1.2
828.4 kPa | 956 ± 1.2
856.4 kPa | 956 ± 1.2
878.8 kPa | 956 ± 1.2
896.7 kPa | 955.9 ± 1.2
918.8 kPa | 955.9 ± 1.2
937.7 kPa | 955.8 ± 1.2
961.3 kPa | 955.9 ± 1.2
986.7 kPa | 956 ± 1.2
1012 kPa | 956 ± 1.2
1034.8 kPa | 956.1 ± 1.2
1062.9 kPa | 956 ± 1.2
1087.6 kPa | 956.1 ± 1.2
1118 kPa | 956.1 ± 1.2
1149.9 kPa | 956 ± 1.2
1183.3 kPa | 956 ± 1.2
1212.4 kPa | 956.1 ± 1.2
1248.7 kPa | 956.1 ± 1.2
1287.1 kPa | 956.2 ± 1.2
1320.4 kPa | 956.1 ± 1.2
1362.3 kPa | 956.1 ± 1.2
1407.7 kPa | 956.3 ± 1.2
1447.7 kPa | 956.2 ± 1.2
1500.9 kPa | 956.2 ± 1.2
1544.9 kPa | 956.4 ± 1.2
1600.2 kPa | 956.4 ± 1.2
1657.7 kPa | 956.3 ± 1.2
1716.5 kPa | 956.4 ± 1.2
1763.5 kPa | 956.4 ± 1.2
1789.9 kPa | 956.6 ± 1.2
1809.7 kPa | 956.6 ± 1.2
1826.2 kPa | 956.5 ± 1.2
1847 kPa | 956.6 ± 1.2
1864.2 kPa | 956.5 ± 1.2
1884.7 kPa | 956.4 ± 1.2
1906.9 kPa | 956.5 ± 1.2
1925.8 kPa | 956.5 ± 1.2
1948 kPa | 956.5 ± 1.2
1967.5 kPa | 956.7 ± 1.2
1990.5 kPa | 956.6 ± 1.2
2013.8 kPa | 956.6 ± 1.2
2034.1 kPa | 956.6 ± 1.2
2058.5 kPa | 956.7 ± 1.2
2083.2 kPa | 956.6 ± 1.2
2104.7 kPa | 956.6 ± 1.2
2130.4 kPa | 956.7 ± 1.2
